Patent publication US9242984B2, “Pyrazolyl derivatives as Syk inhibitors” (Merck Sharp & Dohme Corp., priority 2012, dated 2016)
Read-outs that look alike come from different tables or passages of the source.

Molecular target: T1, recombinant human Syk (GST-hSyk fusion protein) (Homo sapiens, UniProt P43405)
T1 construct: purchased Carna Biosciences 08-176
Test: Homogeneous Time-Resolved Fluorescence (HTRF) assay for the recombinant human Syk enzyme
Format: biochemical
Conditions: 10-dose titration, 25 μM ATP
Summary of the method: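 GST-hSyk (5 pM) preincubated 10 min with compound (0.1% DMSO) in 15 mM Tris-HCl pH 7.5, 2 mM DTT; reaction started with 250 nM biotinylated peptide, 5 mM Mg, 25 μM ATP, 45 min, room temperature. EDTA quench, Eu-anti-phosphotyrosine/SA-APC HTRF read after 30 min; IC50 from 10-dose titration (10 μM–0.508 nM), four-parameter fit.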

[1] = IC50 class, read-out: rhSYK Activity

| Molecule | IC50 [1] [nM] | IC50 (read-out: rhSYK IC50) [nM] |
| --- | --- | --- |
| Cc1cc(Nc2nccc(C(F)(F)F)n2)cc(-c2cnn(CCNC(N)=O)c2)c1 [Example 3.16, 1-{2-[4-(3-methyl-5-{[4-(trifluoromethyl)-pyrimidin-2-yl]-amino}phenyl)-1H-pyrazol-1-yl]ethyl}urea] | ≤ 100 |  |
| Cc1cc(Nc2nccc(C(F)(F)F)n2)cc(-c2cnn(CC(O)COC(C)C)c2)c1 (stereo not drawn) [Example 5.7, 1-(1-methylethoxy)-3-[4-(3-methyl-5-{[4-(trifluoro-methyl)pyrimidin-2-yl]amino}-phenyl)-1H-pyrazol-1-yl]propan-2-ol] | ≤ 100 |  |
| Cc1cc(Nc2nccc(C(F)F)n2)cc(-c2cnn(CC3(C)CNC(=O)O3)c2)c1 (stereo not drawn) [Example 3.123, 5-{[4-(3-{[4-(difluoromethyl)pyrimidin-2-yl]amino}-5-methylphenyl)-1H-pyrazol-1-yl]methyl}-5-methyl-1,3-oxazolidin-2-one] | ≤ 100 |  |
| Cc1cc(Nc2nccc(C(F)(F)F)n2)cc(-c2cnn(C(C)C(O)C(N)=O)c2)c1 (stereo not drawn) [Example 7.6, 2-hydroxy-3-[4-(3-methyl-5-{[4-(trifluorometh-yl)pyrimidin-2-yl]amino}-phenyl)-1H-pyrazol-1-yl]butanamide] | ≤ 100 |  |
| Cc1cc(Nc2nccc(C3CC3)n2)cc(-c2cnn(C[C@](C)(O)CO)c2)c1 [Example 2.90, (2S)-3-(4-{3-[(4-cyclopropylpyrimidin-2-yl)amino]-5-methylphenyl}-1H-pyrazol-1-yl)-2-methylpropane-1,2-diol] | ≤ 100 |  |
| Cc1cc(Nc2nccc(C(F)(F)F)n2)cc(-c2cnn(CC(C)(O)C(N)=O)c2)c1 (single isomer, unassigned) [Example 8.15, 2-hydroxy-2-methyl-3-[4-(3-methyl-5-{[4-(trifluorometh-yl)pyrimidin-2-yl]amino}phenyl)-1H-pyrazol-1-yl]propanamide] | ≤ 100 |  |
| COC(=O)NCCn1cc(-c2cc(C)cc(Nc3nccc(C(F)F)n3)c2)cn1 [Example 27.2, methyl {2-[4-(3-{[4-(difluoromethyl)pyrimidin-2-yl]amino}-5-methylphenyl)-1H-pyrazol-1-yl]ethyl}carbamate] | ≤ 100 |  |
| Cc1cc(Nc2nccc(C(F)F)n2)cc(-c2cnn(C3CCCC(C)(O)C3(C)O)c2)c1 (stereo not drawn) [Example 22.11, 3-[4-(3-{[4-(difluoromethyl)pyrimidin-2-yl]amino}-5-methylphenyl)-1H-pyrazol-1-yl]-1,2-dimethylcyclohexane-1,2-diol] | ≤ 100 | 2.5 |
| Cc1cc(Nc2ncccn2)cc(-c2cnn(Cc3ccc(C(N)=O)cc3)c2)c1 [Example 2.57, 4-({4-[3-methyl-5-(pyrimidin-2-ylamino)phenyl]-1H-pyrazol-1-yl}methyl)benzamide] | ≤ 100 |  |
| CC(=O)Nc1cc(Nc2nccc(C(F)(F)F)n2)cc(-c2cnn(C3CCC(C(=O)O)CC3)c2)c1 (stereo not drawn) [Example 1.53, 4-{4-[3-(acetylamino)-5-{[4-(trifluoromethyl)pyrimidin-2-yl]amino}phenyl]-1H-pyrazol-1-yl}cyclohexanecarboxylic acid] | ≤ 100 |  |
| COC(=O)NC(C)(C)Cn1cc(-c2cc(C)cc(Nc3nccc(C(F)F)n3)c2)cn1 [Example 27.11, methyl {2-[4-(3-{[4-(difluoromethyl)pyrimidin-2-yl]amino}-5-methylphenyl)-1H-pyrazol-1-yl]-1,1-dimethylethyl}carbamate] | ≤ 100 |  |
| Cc1cc(Nc2nccc(C(F)F)n2)cc(-c2cnn(C(C)C3CNC(=O)C3)c2)c1 (stereo not drawn) [Example 2.70, 4-{1-[4-(3-{[4-(difluoromethyl)pyrimidin-2-yl]amino}-5-methylphenyl)-1H-pyrazol-1-yl]ethyl}pyrrolidin-2-one] | ≤ 100 |  |
| 4-{1-[4-(4-methyl-6-{[4-(trifluoromethyl)pyridin-2-yl]amino}pyridin-2-yl)-1H-pyrazol-1-yl]ethyl}pyrrolidin-2-one [Example 1.32] | ≤ 100 |  |
| Cc1cc(Nc2cc(C(F)(F)F)ccn2)nc(-c2cnn(CC3CNC(=O)O3)c2)c1 (stereo not drawn) [Example 1.28, 5-{[4-(4-methyl-6-{[4-(trifluoromethyl)pyridin-2-yl]amino}pyridin-2-yl)-1H-pyrazol-1-yl]methyl}-1,3-oxazolidin-2-one] | ≤ 100 |  |
| Cc1cc(Nc2ncc(F)c(C(F)F)n2)cc(-c2cnn(CC(C)(O)CO)c2)c1 (single isomer, unassigned) [Example 25.10, 3-[4-(3-{[4-(difluoromethyl)-5-fluoropyrimidin-2-yl]amino}-5-methylphenyl)-1H-pyrazol-1-yl]-2-methylpropane-1,2-diol] | ≤ 100 |  |
| Cc1cc(Nc2nccc(C(F)(F)F)n2)cc(-c2n[nH]c3ccccc23)c1 [Example 2.47, N-[3-(1H-indazol-3-yl)-5-methylphenyl]-4-(trifluoromethyl)-pyrimidin-2-amine] | 100 to 1000 |  |
| CCC(O)Cn1cc(-c2cc(C)cc(Nc3nccc(C(F)(F)F)n3)c2)cn1 (racemic) [Example 5.9, 1-[4-(3-methyl-5-{[4-(trifluoro-methyl)pyrimidin-2-yl]amino}-phenyl)-1H-pyrazol-1-yl]butan-2-ol] | ≤ 100 |  |

| Molecule | IC50 [1] [nM] | IC50 (read-out: rhSYK IC50) [nM] |
| --- | --- | --- |
| Cc1cc(Nc2nccc(C(F)(F)F)n2)cc(-c2cnn(C(C)c3ccc(C(=O)O)cc3)c2)c1 (stereo not drawn) [Example 1.48, 4-{1-[4-(3-methyl-5-{[4-(trifluoromethyl)pyrimidin-2-yl]amino}phenyl)-1H-pyrazol-1-yl]ethyl}benzoic acid] | ≤ 100 |  |
| Cc1cc(Nc2nccc(C(F)(F)F)n2)cc(-c2cnn(C[C@@H](O)C(N)=O)c2)c1 [Example 8.13, (2r)-2-hydroxy-3-[4-(3-methyl-5-{[4-(trifluorometh-yl)pyrimidin-2-yl]amino}phenyl)-1H-pyrazol-1-yl]propanamide] | ≤ 100 |  |
| O=C(O)C1CCC(n2cc(-c3cc(Cl)cc(Nc4nccc(C(F)(F)F)n4)c3)cn2)CC1 (stereo not drawn) [Example 1.60, 4-[4-(3-chloro-5-{[4-(trifluoromethyl)pyrimidin-2-yl]amino}phenyl)-1H-pyrazol-1-yl]cyclohexanecarboxylic acid] | ≤ 100 |  |
| CCOC(=O)CCn1cc(-c2cccc(Nc3cc(C(F)(F)F)ccn3)n2)cn1 [Example 1.24, ethyl 3-[4-(6-{[4-(trifluoromethyl)pyridin-2-yl]amino}pyridin-2-yl)-1H-pyrazol-1-yl]propanoate] | 100 to 1000 |  |
| Cc1cc(Nc2nccc(C(F)F)n2)cc(-c2cnn(CC(C)(O)C(C)(C)O)c2)c1 (stereo not drawn) [Example 21.7, 1-[4-(3-{[4-(difluoromethyl)pyrimidin-2-yl]amino}-5-methylphenyl)-1H-pyrazol-1-yl]-2,3-dimethylbutane-2,3-diol] | ≤ 100 |  |
| Cc1cc(Nc2nccc(C(F)(F)F)n2)cc(-c2cnn(C(C)C)c2)c1 [Example 13.1, N-(3-(1-isopropyl-1H-pyrazol-4-yl)-5-methylphenyl)-4-(trifluoromethyl)-pyrimidin-2-amine] | ≤ 100 | 10.7 |
| Cc1cc(Nc2cc(C(F)(F)F)ccn2)nc(-c2cnn(CC3CNC(=O)O3)c2)c1 (stereo not drawn) [Example 1.29, 5-{[4-(4-methyl-6-{[4-(trifluoromethyl)pyridin-2-yl]amino}pyridin-2-yl)-1H-pyrazol-1-yl]methyl}-1,3-oxazolidin-2-one] | ≤ 100 |  |
| Cc1cc(Nc2nccc(C3CC3)n2)cc(-c2cnn(C[C@@H](O)C(=O)O)c2)c1 [Example 11.1, (R)-3-(4-(3-(4-cyclopropylpyrimidin-2-ylamino)-5-methylphenyl)-1H-pyrazol-1-yl)-2-hydroxypropanoic acid] | ≤ 100 | 6.2 |
| Cc1cc(Nc2nccc(C(F)(F)F)n2)cc(-c2cnn(C[C@@H]3COC(=O)N3)c2)c1 [Example 3.97, (4R)-4-{[4-(3-methyl-5-{[4-(trifluoromethyl)pyrimidin-2-yl]amino}phenyl)-1H-pyrazol-1-yl]methyl}-1,3-oxazolidin-2-one] | ≤ 100 |  |
| Cc1cc(Nc2nccc(C(F)(F)F)n2)cc(-c2cnn(C3CCC(C(N)=O)C(C)(C)C3)c2)c1 (stereo not drawn) [Example 8.19, 2,2-dimethyl-4-[4-(3-methyl-5-{[4-(trifluorometh-yl)pyrimidin-2-yl]amino}phenyl)-1H-pyrazol-1-yl]-cyclohexanecarbox-amide] | ≤ 100 |  |
| Cc1ccnc(Nc2cccc(-c3cnn(CC4CNC(=O)O4)c3)c2)n1 (stereo not drawn) [Example 2.20, 5-[(4-{3-[(4-methylpyrimidin-2-yl)amino]phenyl}-1H-pyrazol-1-yl)methyl]-1,3-oxazolidin-2-one] | ≤ 100 |  |
| Cc1cc(Nc2nccc(C(F)(F)F)n2)cc(-c2cnn(CS(N)(=O)=O)c2)c1 [Example 3.39, 1-[4-(3-methyl-5-{[4-(trifluoromethyl)pyrimidin-2-yl]amino}-phenyl)-1H-pyrazol-1-yl]methane-sulfonamide] | ≤ 100 |  |
| COc1ccnc(Nc2cc(C)cc(-c3cnn(CCC(N)=O)c3)c2)n1 [Example 3.40, 3-(4-{3-[(4-methoxypyrimidin-2-yl)amino]-5-methylphenyl}-1H-pyrazol-1-yl)propanamide] | ≤ 100 |  |
| Cc1cc(Nc2nccc(C(F)(F)F)n2)cc(-c2cnn(CC3CNC(=O)O3)c2)c1 (stereo not drawn) [Example 2.45, 5-{[4-(3-methyl-5-{[4-(trifluoromethyl)-pyrimidin-2-yl]amino}phenyl)-1H-pyrazol-1-yl]methyl}-1,3-oxazolidin-2-one] | ≤ 100 |  |
| Cc1cc(Nc2nccc(C(C)C)n2)cc(-c2cnn(CC3CNC(=O)O3)c2)c1 (stereo not drawn) [Example 2.29, 5-{[4-(3-methyl-5-{[4-(1-methylethyl)pyrimidin-2-yl]amino}phenyl)-1H-pyrazol-1-yl]methyl}-1,3-oxazolidin-2-one] | ≤ 100 |  |
| Cc1cc(Nc2nccc(C3CC3)n2)cc(-c2cnn(CCC(=O)O)c2)c1 [Example 2.40, 3-(4-{3-[(4-cyclopropylpyrimidin-2-yl)amino]-5-methylphenyl}-1H-pyrazol-1-yl)propanoic acid] | ≤ 100 |  |
